Blank lines part the entries; values can stand above or below the compound they belong to.
Columns and labels:
[1] = system: HCT-116; test: Growth inhibition of human HCT116 cells after 72 hrs by Celltiter-glo assay; type: functional, cell-based; conditions: HCT-116, 72 h
[2] = system: HCT-116; test: Cell cycle arrest in human HCT116 cells assessed as accumulation at G1-phase at 15 uM after 12 to 16 hrs by propidium iodide staining based flow cytometry (reference value: 30.99%); type: functional
[3] = system: SW-620; test: Cell cycle arrest in human SW620 cells assessed as accumulation at G1-phase at 5 uM after 12 to 16 hrs by propidium iodide staining based flow cytometry (reference value: 24.69%); type: functional
[4] = system: SW-620; test: Cell cycle arrest in human SW620 cells assessed as accumulation at S-phase at 15 uM after 12 to 16 hrs by propidium iodide staining based flow cytometry (reference value: 53.91%); type: functional
[5] = system: SW-620; test: Cell cycle arrest in human SW620 cells assessed as accumulation at G1-phase at 30 uM after 12 to 16 hrs by propidium iodide staining based flow cytometry (reference value: 24.69%); type: functional
[6] = system: HCT-116; test: Cell cycle arrest in human HCT116 cells assessed as accumulation at S-phase at 5 uM after 12 to 16 hrs by propidium iodide staining based flow cytometry (reference value: 55.74%); type: functional
[7] = system: HCT-116; test: Cell cycle arrest in human HCT116 cells assessed as accumulation at G1-phase at 30 uM after 12 to 16 hrs by propidium iodide staining based flow cytometry (reference value: 30.99%); type: functional
[8] = system: HCT-116; test: Cell cycle arrest in human HCT116 cells assessed as accumulation at S-phase at 30 uM after 12 to 16 hrs by propidium iodide staining based flow cytometry (reference value: 55.74%); type: functional
[9] = system: HCT-116; test: Cell cycle arrest in human HCT116 cells assessed as accumulation at S-phase at 15 uM after 12 to 16 hrs by propidium iodide staining based flow cytometry (reference value: 55.74%); type: functional
[10] = system: HCT-116; test: Cell cycle arrest in human HCT116 cells assessed as accumulation at G2-phase at 15 uM after 12 to 16 hrs by propidium iodide staining based flow cytometry (reference value: 13.28%); type: functional
[11] = system: SW-620; test: Cell cycle arrest in human SW620 cells assessed as accumulation at S-phase at 30 uM after 12 to 16 hrs by propidium iodide staining based flow cytometry (reference value: 53.91%); type: functional
[12] = system: HCT-116; test: Cell cycle arrest in human HCT116 cells assessed as accumulation at G2-phase at 5 uM after 12 to 16 hrs by propidium iodide staining based flow cytometry (reference value: 13.28%); type: functional
[13] = system: SW-620; test: Cell cycle arrest in human SW620 cells assessed as accumulation at G2-phase at 5 uM after 12 to 16 hrs by propidium iodide staining based flow cytometry (reference value: 19.02%); type: functional
[14] = system: SW-620; test: Cell cycle arrest in human SW620 cells assessed as accumulation at S-phase at 5 uM after 12 to 16 hrs by propidium iodide staining based flow cytometry (reference value: 53.91%); type: functional
[15] = system: SW-620; test: Cell cycle arrest in human SW620 cells assessed as accumulation at G1-phase at 15 uM after 12 to 16 hrs by propidium iodide staining based flow cytometry (reference value: 24.69%); type: functional
[16] = system: HCT-116; test: Cell cycle arrest in human HCT116 cells assessed as accumulation at G2-phase at 30 uM after 12 to 16 hrs by propidium iodide staining based flow cytometry (reference value: 13.28%); type: functional
[17] = system: HCT-116; test: Cell cycle arrest in human HCT116 cells assessed as accumulation at G1-phase at 5 uM after 12 to 16 hrs by propidium iodide staining based flow cytometry (reference value: 30.99%); type: functional
[18] = system: SW-620; test: Cell cycle arrest in human SW620 cells assessed as accumulation at G2-phase at 30 uM after 12 to 16 hrs by propidium iodide staining based flow cytometry (reference value: 19.02%); type: functional
[19] = system: SW-620; test: Growth inhibition of human SW620 cells after 72 hrs by Celltiter-glo assay; type: functional, cell-based; conditions: SW-620, 72 h
[20] = system: SW-620; test: Cell cycle arrest in human SW620 cells assessed as accumulation at G2-phase at 15 uM after 12 to 16 hrs by propidium iodide staining based flow cytometry (reference value: 19.02%); type: functional
[21] = target: CDK8/Cyclin C (Homo sapiens, UniProt P49336); test: Inhibition of kinase tracer 236 binding to recombinant full length His-tagged human CDK8/CycC expressed in baculovirus expression system preincubated for 20 mins followed by tracer addition and measured after 2 hrs by FRET-based LanthaScreen Eu kinase binding assay
CDK8/Cyclin C, sequence (P49336 whole entry): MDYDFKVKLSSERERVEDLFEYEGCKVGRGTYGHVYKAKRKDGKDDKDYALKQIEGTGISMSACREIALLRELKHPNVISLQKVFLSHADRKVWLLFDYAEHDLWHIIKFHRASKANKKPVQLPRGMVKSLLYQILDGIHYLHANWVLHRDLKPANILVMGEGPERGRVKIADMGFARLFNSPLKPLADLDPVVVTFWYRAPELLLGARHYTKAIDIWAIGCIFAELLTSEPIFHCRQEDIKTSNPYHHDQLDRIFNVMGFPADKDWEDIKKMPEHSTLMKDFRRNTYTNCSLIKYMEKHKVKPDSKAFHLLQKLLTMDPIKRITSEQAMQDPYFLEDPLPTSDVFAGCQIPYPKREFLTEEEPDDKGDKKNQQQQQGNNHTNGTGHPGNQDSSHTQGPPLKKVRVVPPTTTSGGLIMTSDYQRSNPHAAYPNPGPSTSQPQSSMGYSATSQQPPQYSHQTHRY
CDK8/Cyclin C, sequence (P24863 whole entry, further chain): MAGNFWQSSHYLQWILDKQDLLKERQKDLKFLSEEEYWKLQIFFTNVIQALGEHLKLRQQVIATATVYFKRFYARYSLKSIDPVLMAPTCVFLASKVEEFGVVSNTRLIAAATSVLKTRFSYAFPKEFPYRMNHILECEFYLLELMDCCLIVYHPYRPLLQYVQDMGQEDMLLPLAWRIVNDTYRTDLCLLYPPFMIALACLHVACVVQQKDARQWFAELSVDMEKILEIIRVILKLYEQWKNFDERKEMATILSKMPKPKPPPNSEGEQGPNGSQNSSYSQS

[22] = system: HCT-116; test: Induction of G1-phase to S-phase transition arrest in human HCT116 cells after 12 to 16 hrs by propidium iodide staining based flow cytometry; type: functional, cell-based

IC50 [1]: 70.2 µM | IC50 [19]: 52.4 µM
Compound: Cc1n[nH]c2ncc(C(=O)N3CCC[C@H]3c3ccc(Cl)cc3)cc12
Activity [2]: 47.08% | Activity [3]: 27.52% | Activity [4]: 54.86% | Activity [5]: 34.8% | Activity [6]: 29.34% | Activity [7]: 50.47% | Activity [8]: 22.36% | Activity [9]: 27.98% | Activity [10]: 24.8% | Activity [11]: 50.77% | Activity [12]: 21.76% | Activity [13]: 13.83% | Activity [14]: 56.44% | Activity [15]: 30.31% | Activity [16]: 27.16% | Activity [17]: 48.91% | Activity [18]: 11.66% | Activity [20]: 12.35%

IC50 [1]: 4.5 µM | IC50 [21]: 1.3 µM | IC50 [19]: 25 µM
Compound: COc1ccc(C(=O)c2cnc3ccc(F)cc3c2N2CCCCC2)cc1
Activity [2]: 47.09% | Activity [3]: 25.08% | Activity [4]: 51.89% | Activity [5]: 41.68% | Activity [6]: 51.63% | Activity [7]: 62.66% | Activity [8]: 23.48% | Activity [9]: 38.98% | Activity [10]: 13.92% | Activity [11]: 38.54% | Activity [12]: 13.13% | Activity [13]: 18.15% | Activity [14]: 54.27% | Activity [15]: 28.05% | Activity [16]: 13.86% | Activity [17]: 35.24% | Activity [18]: 16.94% | Activity [22]: Dose-dependent effect | Activity [20]: 17.69%

IC50 [21]: 2.9 µM
Compound: COc1ccc(CNc2ncnc3scc(-c4ccccc4)c23)cc1

Reference: ChEMBL document CHEMBL4330136, “Shape-based virtual screen for the discovery of novel CDK8 inhibitor chemotypes” (Bioorg Med Chem Lett, 2019)
